Experimental data published in patent publication US10450309B2, “Aryl sulfonamides as BLT1 antagonists” (Merck Sharp & Dohme Corp., priority 2015, dated 2019).

target: T1, human BLT1 receptor (Homo sapiens, UniProt Q15722); experiment: BLT-1 cAMP Assay; assay type: cell-based; conditions: antagonist mode; HEK293 cells recombinantly expressing human BLT1; forskolin 4 μM and LTB4 2 nM
T1 construct: expressed in transfected cells; host or cells: HEK293
Procedure: The ability of compounds to antagonize the human BLT1 receptor was determined using a kit to measure changes in intracellular cyclic AMP levels (cAMP dynamic assay kit, Cisbio Cat. No. 62AM4PEC). HEK293 cells recombinantly expressing human BLT1, previously frozen in Recovery Medium (Life Technologies, Cat. No. 12648-010) were thawed and diluted into assay medium (HBSS (Hyclone SH 30268.01), 20 mM HEPES (Gibco 15630-106), 800 μM IBMX (Sigma 15879), 0.1% DTPA BSA (Perkin Elmer CR84-100)). The cell suspension was centrifuged at 200×g for 10 min and then resuspended in fresh assay medium to a density of 2.5×10^5 cells/mL. A Labcyte Echo 550 acoustic dispenser was used to transfer 25 nL of test compound dissolved in DMSO into the wells of a dry 384-well plate (Greiner 784075). All subsequent liquid additions were performed using a BIORAPTR (FRD; Beckman Coulter). Next, 5 μL of cell suspension was added and incubated for 20 min. at 37° C. and 5% CO2 in a humidified plastic tray. To test for agonist activity 5 μL of assay buffer containing forskolin (Sigma F-6886. 4 μM for BLT1) was added and incubated for 30 minutes at 37° C. and 5% CO2 in a humidified plastic tray. To test for antagonist activity 5 μL of assay buffer containing forskolin (Sigma F-6886. 4 μM for BLT1) and either LTB4 (Sigma Aldrich L0517; 2 nM BLT1) was added and incubated for 30 minutes at 37° C. and 5% CO2 in a humidified plastic tray.
The levels of cAMP were detected using the CisBio kit following the manufacturer's instructions: cAMP-d2 vial was reconstituted with distilled water and then diluted accordingly with conjugate & lysis buffer. 5 μL of cAMP-d2 working solution was added to all of the wells of the assay plate. cAMP-Cryptate vial was reconstituted with distilled water and then diluted accordingly with conjugate & lysis buffer. 5 μL of cAMP-Cryptate working solution were added to the assay plate. The assay plate was shaken for 3 minutes and incubated at room temperature for 45 minutes, then read on Perkin Elmer Envision. cAMP standard curve and fit data were plotted using a 4 parameter dose response curve fitting algorithm to fit curve. A 4-parameter curve fit (Max, min, log EC50 and slope) was used to transform fluorescent 665 nm/615 nm ratio signal to cAMP concentration. After normalization to treated and untreated controls, the percent effect of signal at each compound concentration was calculated. The plot of percent effect versus the log of compound concentration was fit with a 4-parameter concentration response equation to calculate EC50 values. Compound concentrations tested were 10 000, 3 333, 1 111, 370.4, 123.4, 41.2, 13.7, 4.6, 1.5 and 0.5 nM with 0.25% residual DMSO.

T1 sequence (Q15722 whole entry): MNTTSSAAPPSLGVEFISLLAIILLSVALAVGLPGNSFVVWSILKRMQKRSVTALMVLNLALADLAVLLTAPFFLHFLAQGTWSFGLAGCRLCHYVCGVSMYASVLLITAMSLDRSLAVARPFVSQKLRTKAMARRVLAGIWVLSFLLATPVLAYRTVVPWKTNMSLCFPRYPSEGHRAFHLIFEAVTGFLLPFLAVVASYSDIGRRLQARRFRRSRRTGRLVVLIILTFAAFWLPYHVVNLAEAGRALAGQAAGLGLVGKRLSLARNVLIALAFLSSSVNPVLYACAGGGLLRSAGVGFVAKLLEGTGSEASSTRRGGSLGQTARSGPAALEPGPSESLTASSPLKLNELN

Which EC50 does the source give for `Cn1nccc1-c1ccc(C[C@@H]2COc3cc(-c4ccccc4NS(=O)(=O)C(F)(F)F)ccc3[C@H]2O)nc1` (single isomer, unassigned) [Example 5, 1,1,1-Trifluoro-N-(2-((3,4-trans)-4-hydroxy-3-((5-(1-methyl-1H-pyrazol-5-yl)pyridin-2-yl)methyl)chroman-7-yl)phenyl)methanesulfonamide] here?
The EC50 was 294 nM.

How did the EC50 turn out when `O=S(=O)(Nc1ccc(F)cc1-c1ccc2c(c1)OC[C@H](Cc1ccc(-c3cncs3)cn1)[C@H]2O)C(F)(F)F` (racemic) [Example 8, 1,1,1-trifluoro-N-{4-fluoro-2-[(rac-trans) 4-hydroxy-3-{[5-(1,3-thiazol-5-yl)pyridin-2-yl]methyl}-3,4-dihydro-2H-chromen-7-yl]phenyl}methanesulfonamide] was run?
The EC50 was 24 nM.

“1,1,1-Trifluoro-N-(2-((3R,4S or 3S,4R)-4-hydroxy-3-((5-(5-methylthiazol-2-yl)pyridin-2-yl)methyl)chroman-7-yl)phenyl)methanesulfonamide [Example 6]” was tested. Which EC50 did it give?
Its EC50 is 187 nM.

With `Cn1cc(-c2ccc(C[C@H]3COc4cc(-c5ccccc5NS(=O)(=O)C(F)(F)F)ccc4[C@@H]3O)nc2)cn1` (single isomer, unassigned) [Example 3, 1,1,1-Trifluoro-N-(2-((3S,4R or 3R,4S)-4-hydroxy-3-((5-(1-methyl-1H-pyrazol-4-yl)pyridin-2-yl)methyl)chroman-7-yl)phenyl)methanesulfonamide] as the compound, how does the EC50 read?
Its EC50 is 5 nM.

`O=S(=O)(Nc1ccc(F)cc1-c1ccc2c(c1)OC[C@H](Cc1ccc(-c3cncs3)cn1)[C@H]2O)C(F)(F)F` (single isomer, unassigned) [Example 13, 1,1,1-trifluoro-N-{4-fluoro-2-[(3S,4R or 3R,4S)-4-hydroxy-3-{[5-(1,3-thiazol-5-yl)pyridin-2-yl]methyl}-3,4-dihydro-2H-chromen-7-yl]phenyl}methane-sulfonamide] was tested. Which EC50 did it give?
Its EC50 is 4 nM.

With `O=S(=O)(Nc1ccccc1-c1ccc2c(c1)OC[C@@H](Cc1ccc(-c3cncs3)cn1)[C@@H]2O)C(F)(F)F` (single isomer, unassigned) [Example 1, 1,1,1-Trifluoro-N-(2-((3R,4S or 3S,4R)-4-hydroxy-3-((5-(thiazol-5-yl)pyridin-2-yl)methyl)chroman-7-yl)phenyl)methanesulfonamide] as the compound, how does the EC50 read?
Its EC50 is 82 nM.

`O=S(=O)(Nc1ccccc1-c1ccc2c(c1)OC[C@@H](Cc1ccc(-c3nccs3)cn1)[C@@H]2O)C(F)(F)F` (single isomer, unassigned) [Example 11, 1,1,1-Trifluoro-N-(2-((3,4-trans)-4-hydroxy-3-((5-(thiazol-2-yl)pyridin-2-yl)methyl)chroman-7-yl)phenyl)methanesulfonamide] was tested. Which EC50 did it give?
The EC50 was 16 nM.

`O=S(=O)(Nc1ccccc1-c1ccc2c(c1)OC[C@@H](Cc1ccc(-c3nccs3)cn1)[C@@H]2O)C(F)(F)F` (single isomer, unassigned) [Example 10, 1,1,1-Trifluoro-N-(2-((3,4-trans)-4-hydroxy-3-((5-(thiazol-2-yl)pyridin-2-yl)methyl)chroman-7-yl)phenyl)methanesulfonamide] was tested. Which EC50 did it give?
Its EC50 is 20 nM.

`O=S(=O)(Nc1ccccc1-c1ccc2c(c1)OC[C@@H](Cc1ccc(-c3cscn3)cn1)[C@@H]2O)C(F)(F)F` (single isomer, unassigned) [Example 12, 1,1,1-Trifluoro-N-(2-((3,4-trans)-4-hydroxy-3-((5-(thiazol-4-yl)pyridin-2-yl)methyl)chroman-7-yl)phenyl)methanesulfonamide] was tested. Which EC50 did it give?
The EC50 was 4 nM.

`O=S(=O)(Nc1ccccc1-c1ccc2c(c1)OC[C@@H](Cc1ccc(-c3cscn3)cn1)[C@@H]2O)C(F)(F)F` (single isomer, unassigned) [Example 9, 1,1,1-Trifluoro-N-(2-((3,4-trans)-4-hydroxy-3-((5-(thiazol-4-yl)pyridin-2-yl)methyl)chroman-7-yl)phenyl)methanesulfonamide] was tested. Which EC50 did it give?
The EC50 was 107 nM.

How did the EC50 turn out when “1,1,1-Trifluoro-N-(2-((3S,4R or 3R,4S)-4-hydroxy-3-((5-(5-methylthiazol-2-yl)pyridin-2-yl)methyl)chroman-7-yl)phenyl)methanesulfonamide [Example 7]” was run?
Its EC50 is 4 nM.

How did the EC50 turn out when `Cn1cc(-c2ccc(C[C@@H]3COc4cc(-c5ccccc5NS(=O)(=O)C(F)(F)F)ccc4[C@H]3O)nc2)cn1` (single isomer, unassigned) [Example 4, 1,1,1-Trifluoro-N-(2-((3R,4S or 3S,4R)-4-hydroxy-3-((5-(1-methyl-1H-pyrazol-4-yl)pyridin-2-yl)methyl)chroman-7-yl)phenyl)methanesulfonamide] was run?
Its EC50 is 140 nM.

Which EC50 does the source give for `O=S(=O)(Nc1ccc(F)cc1-c1ccc2c(c1)OC[C@@H](Cc1ccc(-c3cncs3)cn1)[C@@H]2O)C(F)(F)F` (single isomer, unassigned) [Example 14, 1,1,1-trifluoro-N-{4-fluoro-2-[(3R,4S or 3S,4R)-4-hydroxy-3-{[5-(1,3-thiazol-5-yl)pyridin-2-yl]methyl}-3,4-dihydro-2H-chromen-7-yl]phenyl}methane-sulfonamide] here?
Its EC50 is 31 nM.

Which EC50 does the source give for `O=S(=O)(Nc1ccccc1-c1ccc2c(c1)OC[C@H](Cc1ccc(-c3cncs3)cn1)[C@H]2O)C(F)(F)F` (single isomer, unassigned) [Example 2, 1,1,1-Trifluoro-N-(2-((3S,4R or 3R,4S)-4-hydroxy-3-((5-(thiazol-5-yl)pyridin-2-yl)methyl)chroman-7-yl)phenyl)methanesulfonamide] here?
The EC50 was 8 nM.
